Measurements reported in publication PMC7774954, “Interactomic affinity profiling by holdup assay: Acetylation and distal residues impact the PDZome-binding specificity of PTEN phosphatase” (PLoS ONE, 2020).
*1 amine or outer side, *2 acyl side, *3 side chain or, on linkers, in order; H or OH if unused. Where a SMILES comes first, the peptide text is derived from it. The star is where a group is joined. X1 = O=C(CCCC[C@@H]1SC[C@@H]2NC(=O)N[C@@H]21)NCCCOCCOCCOCCCN*; Suc = O=C(CCC(=O)[*:2])[*:1]

Legend:
[1] = molecular target: GRID2IP-2 (Homo sapiens, UniProt A4D2P6); experiment: Holdup assay, GRID2IP-2; format: binding
[2] = tested on: MAGI1-4; experiment: Holdup assay, MAGI1-4; format: binding, human
[3] = tested on: AHNAK1-1; experiment: Holdup assay, AHNAK1-1; format: binding, human
[4] = tested on: GRIP2-2; experiment: Holdup assay, GRIP2-2; format: binding, human
[5] = tested on: LNX1-1; experiment: Holdup assay, LNX1-1; format: binding, human
[6] = molecular target: LNX1-4 (Homo sapiens, UniProt Q8TBB1); experiment: Holdup assay, LNX1-4; format: binding
[7] = tested on: DEPTOR-1; experiment: Holdup assay, DEPTOR-1; format: binding, human
[8] = tested on: GIPC3-1; experiment: Holdup assay, GIPC3-1; format: binding, human
[9] = molecular target: T1, CNKSR1-1 (Homo sapiens, UniProt Q969H4); experiment: Holdup assay, CNKSR1-1; format: binding
T1 sequence (Q969H4 1-720): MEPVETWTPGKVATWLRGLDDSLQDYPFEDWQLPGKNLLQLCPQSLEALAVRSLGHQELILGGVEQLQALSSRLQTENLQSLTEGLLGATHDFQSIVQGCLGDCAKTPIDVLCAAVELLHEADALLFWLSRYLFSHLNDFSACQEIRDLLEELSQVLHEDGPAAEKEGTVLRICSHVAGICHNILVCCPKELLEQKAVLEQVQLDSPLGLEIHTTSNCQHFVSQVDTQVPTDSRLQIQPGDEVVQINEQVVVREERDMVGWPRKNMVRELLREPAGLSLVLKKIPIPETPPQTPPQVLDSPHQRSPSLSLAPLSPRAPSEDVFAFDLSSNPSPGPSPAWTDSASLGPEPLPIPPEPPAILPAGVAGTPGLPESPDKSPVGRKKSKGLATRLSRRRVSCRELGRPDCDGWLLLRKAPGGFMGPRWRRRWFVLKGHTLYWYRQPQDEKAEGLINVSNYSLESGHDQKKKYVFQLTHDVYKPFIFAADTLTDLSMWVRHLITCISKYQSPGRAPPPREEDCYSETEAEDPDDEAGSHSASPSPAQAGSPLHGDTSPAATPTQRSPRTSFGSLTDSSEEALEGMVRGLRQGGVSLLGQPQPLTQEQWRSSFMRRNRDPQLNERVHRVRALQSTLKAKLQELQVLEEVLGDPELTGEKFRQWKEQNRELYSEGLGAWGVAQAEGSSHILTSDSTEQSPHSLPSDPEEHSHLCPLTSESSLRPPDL

[10] = tested on: CNKSR2-1; experiment: Holdup assay, CNKSR2-1; format: binding, human
[11] = molecular target: APBA1-2 (Homo sapiens, UniProt Q02410); experiment: Holdup assay, APBA1-2; format: binding
[12] = tested on: DLG2-3; experiment: Holdup assay, DLG2-3; format: binding, human
[13] = molecular target: T2, SCRIB-3 (Homo sapiens, UniProt Q14160); experiment: Competitive FP, SCRIB-3; format: binding; conditions: SCRIB-3 + 50 nM f16E6
T2 construct: Representative holdup data recorded for three PDZ domains (MAST2-1, HTRA1-1, SCRIB-3); made in house; host or cells: E. coli
T2 sequence (Q14160 1004-1093 limits assumed): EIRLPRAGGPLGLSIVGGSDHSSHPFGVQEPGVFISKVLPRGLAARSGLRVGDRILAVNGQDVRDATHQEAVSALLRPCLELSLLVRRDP
Experimental: Protein concentrations were determined by far-UV absorption spectroscopy. A detailed protocol has been published previously.

[14] = tested on: LMO7-1; experiment: Holdup assay, LMO7-1; format: binding, human

GRID2IP-2, sequence (A4D2P6 whole entry): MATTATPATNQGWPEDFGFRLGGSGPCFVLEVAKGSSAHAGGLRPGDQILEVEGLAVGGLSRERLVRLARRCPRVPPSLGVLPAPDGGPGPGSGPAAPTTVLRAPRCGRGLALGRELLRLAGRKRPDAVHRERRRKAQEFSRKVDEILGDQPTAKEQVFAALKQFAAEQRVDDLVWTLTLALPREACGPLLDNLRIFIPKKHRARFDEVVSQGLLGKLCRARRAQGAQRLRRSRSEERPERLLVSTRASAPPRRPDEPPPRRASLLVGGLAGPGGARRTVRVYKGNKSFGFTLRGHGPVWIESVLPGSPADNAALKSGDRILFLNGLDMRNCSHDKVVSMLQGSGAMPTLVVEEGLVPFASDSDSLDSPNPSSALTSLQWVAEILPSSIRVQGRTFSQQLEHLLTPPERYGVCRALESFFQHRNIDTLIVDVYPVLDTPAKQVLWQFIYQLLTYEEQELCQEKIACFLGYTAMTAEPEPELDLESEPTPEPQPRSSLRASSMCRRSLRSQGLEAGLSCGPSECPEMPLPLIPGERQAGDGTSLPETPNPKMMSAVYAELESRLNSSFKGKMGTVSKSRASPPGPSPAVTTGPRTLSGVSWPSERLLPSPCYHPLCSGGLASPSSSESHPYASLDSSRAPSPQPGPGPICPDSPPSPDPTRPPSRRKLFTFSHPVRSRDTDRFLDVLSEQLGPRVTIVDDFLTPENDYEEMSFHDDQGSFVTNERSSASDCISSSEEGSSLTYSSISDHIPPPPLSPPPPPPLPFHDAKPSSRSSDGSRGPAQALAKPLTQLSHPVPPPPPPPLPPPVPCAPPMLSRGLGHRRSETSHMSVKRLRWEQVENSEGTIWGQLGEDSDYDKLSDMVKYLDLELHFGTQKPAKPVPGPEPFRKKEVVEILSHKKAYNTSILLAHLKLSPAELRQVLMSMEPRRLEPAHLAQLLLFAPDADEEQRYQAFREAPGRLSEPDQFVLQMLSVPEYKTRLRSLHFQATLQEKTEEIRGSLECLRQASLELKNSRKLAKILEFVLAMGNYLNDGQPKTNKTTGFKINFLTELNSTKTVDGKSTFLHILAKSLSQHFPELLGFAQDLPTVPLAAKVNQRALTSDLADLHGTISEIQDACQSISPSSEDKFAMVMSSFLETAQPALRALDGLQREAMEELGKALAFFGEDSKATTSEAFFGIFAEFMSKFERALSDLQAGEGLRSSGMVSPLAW
LNX1-4, sequence (Q8TBB1 638-723): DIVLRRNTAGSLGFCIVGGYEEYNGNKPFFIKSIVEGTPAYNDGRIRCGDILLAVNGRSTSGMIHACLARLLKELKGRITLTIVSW
APBA1-2, sequence (Q02410 747-822): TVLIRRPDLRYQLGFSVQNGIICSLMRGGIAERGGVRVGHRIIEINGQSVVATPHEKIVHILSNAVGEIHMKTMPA

| Compound | BI [1] | LogKD [1] | BI [2] | BI [3] | BI [4] | BI [5] | BI [6] | Kd [6] | BI [7] | BI [8] | BI [9] | LogKD [9] | BI [10] | BI [11] | BI [12] | LogKD [7] | binding by holdup and competitive FP (in words) [13] | BI [14] | LogKD [14] |
| --- | --- | --- | --- | --- | --- | --- | --- | --- | --- | --- | --- | --- | --- | --- | --- | --- | --- | --- | --- |
| CC[C@H](C)[C@H](NC(=O)[C@H](CCC(N)=O)NC(=O)[C@@H](NC(=O)[C@H](Cc1c[nH]cn1)NC(=O)[C@H](CCC(N)=O)NC(=O)[C@H](CC(=O)O)NC(=O)[C@H](CCC(=O)O)NC(=O)[C@H](CC(=O)O)NC(=O)[C@H](Cc1ccccc1)NC(=O)[C@@H]1CCCN1C(=O)CCC(=O)NCCCOCCOCCOCCCNC(=O)CCCC[C@@H]1SC[C@@H]2NC(=O)N[C@@H]21)[C@@H](C)O)C(=O)N[C@H](C(=O)N[C@@H](CCCCN)C(=O)N[C@H](C(=O)O)C(C)C)[C@@H](C)O [PTEN_13] ({X1-Suc}-PFDEDQHTQITKV-OH) | -0.012 | 3.826 | 0.094 | -0.053 | -0.021 | 0.021 | 0.378 | 25.5 µM | -0.005 | 0.032 | -0.076 | 3.826 | -0.021 | 0.184 | 0.083 | – | – | – | – |
| CC[C@H](C)[C@H](NC(=O)[C@H](CCC(N)=O)NC(=O)[C@@H](NC(=O)[C@H](Cc1c[nH]cn1)NC(=O)[C@H](CCC(N)=O)NC(=O)[C@H](CC(=O)O)NC(=O)[C@H](CCC(=O)O)NC(=O)[C@H](CC(=O)O)NC(=O)CCC(=O)NCCCOCCOCCOCCCNC(=O)CCCC[C@@H]1SC[C@@H]2NC(=O)N[C@@H]21)[C@@H](C)O)C(=O)N[C@H](C(=O)N[C@@H](CCCCNC(C)=O)C(=O)N[C@H](C(=O)O)C(C)C)[C@@H](C)O [PTEN_Ac] | – | – | – | – | – | – | – | – | -0.046 | – | 0.116 | – | – | – | – | 3.605 | – | – | – |
| CC[C@H](C)[C@H](NC(=O)[C@H](CCC(N)=O)NC(=O)[C@@H](NC(=O)[C@H](Cc1c[nH]cn1)NC(=O)[C@H](CCC(N)=O)NC(=O)[C@H](CC(=O)O)NC(=O)[C@H](CCC(=O)O)NC(=O)[C@H](CC(=O)O)NC(=O)CCC(=O)NCCCOCCOCCOCCCNC(=O)CCCC[C@@H]1SC[C@@H]2NC(=O)N[C@@H]21)[C@@H](C)O)C(=O)N[C@H](C(=O)N[C@@H](CCCCN)C(=O)N[C@H](C(=O)O)C(C)C)[C@@H](C)O [PTEN_11] | – | – | – | – | – | – | – | – | – | – | – | – | – | – | – | – | non-binding | -0.045 | 3.519 |
